Test results from publication PMC4450297, “Screening Active Compounds from Garcinia Species Native to China Reveals Novel Compounds Targeting the STAT/JAK Signaling Pathway” (BioMed Research International, 2015).

Legend:
Assay in all cases: Cell panel screen (CellTiter-Glo)
Type in all cases: cell-based, human
A498 = A498 (listed under Lung), 20 micromolar, 72 hrs
Procedure: (§1) All cells were obtained from the cell bank of the American Type Culture Collection (ATCC) and cultured in the supplier's recommended media supplemented with 10% FBS. The cell panel screen was measured using the CellTiter-Glo assay (Promega, Madison, WI) following a standard protocol. Briefly, cancer cells were seeded in 96-well plates and cultured overnight at 37°C with or without 5% CO2 in an incubator. Each compound was dissolved with limited DMSO and diluted to a certain concentration with culture medium and then added to the corresponding well of the cell plate. The final concentration of compound was 20 μM. The control cells (without treatment) received the same amount of DMSO and were incubated under the same conditions. After 72 h cultivation, 100 μL of the CellTiter-Glo reagent was added directly to each well for 10-minute incubation. The plate was then read on a FlexStation 3 microplate luminometer (Molecular Devices, USA) to monitor the luminescence signal generated by the luciferase-catalyzed reaction of luciferin and ATP. The percent of growth inhibition was calculated using the following formula: (untreated cells − treated cells)/(untreated cells − background without cells) ∗ 100.

A704 = A704 (Kidney), 20 micromolar, 72 hrs
Procedure: as §1

BT-474 = BT-474 (Breast), 20 micromolar, 72 hrs
Procedure: as §1

BT-549 = BT-549 (Breast), 20 micromolar, 72 hrs
Procedure: as §1

Bel-7402 = Bel-7402 (Liver), 20 micromolar, 72 hrs
Procedure: as §1

C3A = C3A (Liver), 20 micromolar, 72 hrs
Procedure: as §1

C8166 = C8166 (Leukemia), 20 micromolar, 72 hrs
Procedure: as §1

CCF-STTG1 = CCF-STTG1 (Brain), 20 micromolar, 72 hrs
Procedure: as §1

CW-2 = CW-2 (Colon), 20 micromolar, 72 hrs
Procedure: as §1

ChaGo-K-1 = ChaGo-K-1 (Lung), 20 micromolar, 72 hrs
Procedure: as §1

Colo 205 = settings: Colo 205, 20 micromolar, 72 hrs
Procedure: as §1

HCC1395 = HCC1395 (Breast), 20 micromolar, 72 hrs
Procedure: as §1

HCC1569 = HCC1569 (Breast), 20 micromolar, 72 hrs
Procedure: as §1

HCC1599 = HCC1599 (Breast), 20 micromolar, 72 hrs
Procedure: as §1

HCC1937 = HCC1937 (Breast), 20 micromolar, 72 hrs
Procedure: as §1

HEC-1-A = HEC-1-A (Uterus), 20 micromolar, 72 hrs
Procedure: as §1

HGC-27 = HGC-27 (Stomach), 20 micromolar, 72 hrs
Procedure: as §1

HPAF-II = HPAF-II (Pancreas), 20 micromolar, 72 hrs
Procedure: as §1

HT-1197 = HT-1197 (Urinary bladder), 20 micromolar, 72 hrs
Procedure: as §1

J82 = J82 (Urinary bladder), 20 micromolar, 72 hrs
Procedure: as §1

M059J = M059J (Brain), 20 micromolar, 72 hrs
Procedure: as §1

MSTO-211-H = MSTO-211-H (Lung), 20 micromolar, 72 hrs
Procedure: as §1

NCI-H1623 = NCI-H1623 (Lung), 20 micromolar, 72 hrs
Procedure: as §1

NCI-H1694 = NCI-H1694 (Lung), 20 micromolar, 72 hrs
Procedure: as §1

NCI-H1770 = NCI-H1770 (Lung), 20 micromolar, 72 hrs
Procedure: as §1

NCI-H2347 = NCI-H2347 (Lung), 20 micromolar, 72 hrs
Procedure: as §1

NCI-H2405 = NCI-H2405 (Lung), 20 micromolar, 72 hrs
Procedure: as §1

NCI-H28 = NCI-H28 (Lung), 20 micromolar, 72 hrs
Procedure: as §1

NCI-H524 = NCI-H524 (Lung), 20 micromolar, 72 hrs
Procedure: as §1

Panc 03.27 = Panc 03.27 (Pancreas), 20 micromolar, 72 hrs
Procedure: as §1

RL95 = RL95 (Uterus), 20 micromolar, 72 hrs
Procedure: as §1

SW13 = SW13 (Adrenal gland), 20 micromolar, 72 hrs
Procedure: as §1

T47D = T47D (Breast), 20 micromolar, 72 hrs
Procedure: as §1

T98G = T98G (Brain), 20 micromolar, 72 hrs
Procedure: as §1

TCCSUP = TCCSUP (Urinary bladder), 20 micromolar, 72 hrs
Procedure: as §1

ZR-75-30 = ZR-75-30 (Breast), 20 micromolar, 72 hrs
Procedure: as §1

For Bannaxanthone G [bn-21], the “Percent Inhibition” value (A498) was 60%, the “Percent Inhibition” value (A704) was 64% and the “Percent Inhibition” value (BT-474) was 88%. The “Percent Inhibition” value (BT-549) was 70%, the “Percent Inhibition” value (Bel-7402) was 93% and the “Percent Inhibition” value (C3A) was 62%. For the same compound, the “Percent Inhibition” value (C8166) was 90%, the “Percent Inhibition” value (CCF-STTG1) was 68% and the “Percent Inhibition” value (CW-2) was 99%. The “Percent Inhibition” value (ChaGo-K-1) was 95%, the “Percent Inhibition” value (Colo 205) was 100% and the “Percent Inhibition” value (HCC1395) was 95%. The “Percent Inhibition” value (HCC1569) was 76%, the “Percent Inhibition” value (HCC1599) was 97% and the “Percent Inhibition” value (HCC1937) was 92%. For the same compound, the “Percent Inhibition” value (HEC-1-A) was 71%, the “Percent Inhibition” value (HGC-27) was 84% and the “Percent Inhibition” value (HPAF-II) was 84%. The “Percent Inhibition” value (HT-1197) was 91%, the “Percent Inhibition” value (J82) was 88% and the “Percent Inhibition” value (M059J) was 94%. For the same compound, the “Percent Inhibition” value (MSTO-211-H) was 90%, the “Percent Inhibition” value (NCI-H1623) was 72% and the “Percent Inhibition” value (NCI-H1694) was 100%. For the same compound, the “Percent Inhibition” value (NCI-H1770) was 94%, the “Percent Inhibition” value (NCI-H2347) was 75% and the “Percent Inhibition” value (NCI-H2405) was 80%. The “Percent Inhibition” value (NCI-H28) was 73%, the “Percent Inhibition” value (NCI-H524) was 100% and the “Percent Inhibition” value (Panc 03.27) was 95%. For the same compound, the “Percent Inhibition” value (RL95) was 88%, the “Percent Inhibition” value (SW13) was 92% and the “Percent Inhibition” value (T47D) was 64%. For the same compound, the “Percent Inhibition” value (T98G) was 77%, the “Percent Inhibition” value (TCCSUP) was 84% and the “Percent Inhibition” value (ZR-75-30) was 99%.
In the case of Bannaxanthone E [bn-3], the “Percent Inhibition” value (A498) is reported as 96%, the “Percent Inhibition” value (A704) is reported as 98% and the “Percent Inhibition” value (BT-474) is reported as 90%. The “Percent Inhibition” value (BT-549) was 97%, the “Percent Inhibition” value (Bel-7402) was 98% and the “Percent Inhibition” value (C3A) was 78%. For the same compound, the “Percent Inhibition” value (C8166) was 98%, the “Percent Inhibition” value (CCF-STTG1) was 93% and the “Percent Inhibition” value (CW-2) was 99%. For the same compound, the “Percent Inhibition” value (ChaGo-K-1) was 97%, the “Percent Inhibition” value (Colo 205) was 99% and the “Percent Inhibition” value (HCC1395) was 98%. The “Percent Inhibition” value (HCC1569) was 97%, the “Percent Inhibition” value (HCC1599) was 98% and the “Percent Inhibition” value (HCC1937) was 98%. For the same compound, the “Percent Inhibition” value (HEC-1-A) was 88%, the “Percent Inhibition” value (HGC-27) was 98% and the “Percent Inhibition” value (HPAF-II) was 92%. For the same compound, the “Percent Inhibition” value (HT-1197) was 98%, the “Percent Inhibition” value (J82) was 98% and the “Percent Inhibition” value (M059J) was 97%. For the same compound, the “Percent Inhibition” value (MSTO-211-H) was 98%, the “Percent Inhibition” value (NCI-H1623) was 95% and the “Percent Inhibition” value (NCI-H1694) was 99%. The “Percent Inhibition” value (NCI-H1770) was 98%, the “Percent Inhibition” value (NCI-H2347) was 89% and the “Percent Inhibition” value (NCI-H2405) was 96%. For the same compound, the “Percent Inhibition” value (NCI-H28) was 95%, the “Percent Inhibition” value (NCI-H524) was 99% and the “Percent Inhibition” value (Panc 03.27) was 92%. For the same compound, the “Percent Inhibition” value (RL95) was 98%, the “Percent Inhibition” value (SW13) was 98% and the “Percent Inhibition” value (T47D) was 96%. The “Percent Inhibition” value (T98G) was 99%, the “Percent Inhibition” value (TCCSUP) was 96% and the “Percent Inhibition” value (ZR-75-30) was 99%.
For `O=C(c1ccc(O)c(O)c1)c1c(O)cc(O)cc1O` [gl-25], the “Percent Inhibition” value (A498) was -10%, the “Percent Inhibition” value (A704) was -5% and the “Percent Inhibition” value (BT-474) was -3%. For the same compound, the “Percent Inhibition” value (BT-549) was -10%, the “Percent Inhibition” value (Bel-7402) was -5% and the “Percent Inhibition” value (C3A) was -3%. For the same compound, the “Percent Inhibition” value (C8166) was 3%, the “Percent Inhibition” value (CCF-STTG1) was 9% and the “Percent Inhibition” value (CW-2) was -2%. For the same compound, the “Percent Inhibition” value (ChaGo-K-1) was -26%, the “Percent Inhibition” value (Colo 205) was -1% and the “Percent Inhibition” value (HCC1395) was -8%. The “Percent Inhibition” value (HCC1569) was 1%, the “Percent Inhibition” value (HCC1599) was 11% and the “Percent Inhibition” value (HCC1937) was 0%. For the same compound, the “Percent Inhibition” value (HEC-1-A) was 5%, the “Percent Inhibition” value (HGC-27) was -3% and the “Percent Inhibition” value (HPAF-II) was 1%. For the same compound, the “Percent Inhibition” value (HT-1197) was 5%, the “Percent Inhibition” value (J82) was 1% and the “Percent Inhibition” value (M059J) was -9%. The “Percent Inhibition” value (MSTO-211-H) was -30%, the “Percent Inhibition” value (NCI-H1623) was 0% and the “Percent Inhibition” value (NCI-H1694) was -12%. For the same compound, the “Percent Inhibition” value (NCI-H1770) was -10%, the “Percent Inhibition” value (NCI-H2347) was -13% and the “Percent Inhibition” value (NCI-H2405) was -9%. The “Percent Inhibition” value (NCI-H28) was -9%, the “Percent Inhibition” value (NCI-H524) was -74% and the “Percent Inhibition” value (Panc 03.27) was -14%. For the same compound, the “Percent Inhibition” value (RL95) was -8%, the “Percent Inhibition” value (SW13) was -10% and the “Percent Inhibition” value (T47D) was -8%. The “Percent Inhibition” value (T98G) was -2%, the “Percent Inhibition” value (TCCSUP) was -5% and the “Percent Inhibition” value (ZR-75-30) was -3%.
`CC(C)=CCCC1(C)C=Cc2c(O)c3c(c(CC=C(C)C)c2O1)OC12C(=CC4CC1C(C)(C)OC2(CC=C(C)C(=O)O)C4=O)C3=O` (mixture of isomers) [GB8] was tested, and the “Percent Inhibition” value (A498) was 99%, the “Percent Inhibition” value (A704) was 99% and the “Percent Inhibition” value (BT-474) was 99%. For the same compound, the “Percent Inhibition” value (BT-549) was 100%, the “Percent Inhibition” value (Bel-7402) was 99% and the “Percent Inhibition” value (C3A) was 99%. The “Percent Inhibition” value (C8166) was 100%, the “Percent Inhibition” value (CCF-STTG1) was 99% and the “Percent Inhibition” value (CW-2) was 99%. The “Percent Inhibition” value (ChaGo-K-1) was 99%, the “Percent Inhibition” value (Colo 205) was 99% and the “Percent Inhibition” value (HCC1395) was 99%. The “Percent Inhibition” value (HCC1569) was 100%, the “Percent Inhibition” value (HCC1599) was 100% and the “Percent Inhibition” value (HCC1937) was 100%. For the same compound, the “Percent Inhibition” value (HEC-1-A) was 100%, the “Percent Inhibition” value (HGC-27) was 100% and the “Percent Inhibition” value (HPAF-II) was 99%. The “Percent Inhibition” value (HT-1197) was 99%, the “Percent Inhibition” value (J82) was 99% and the “Percent Inhibition” value (M059J) was 100%. The “Percent Inhibition” value (MSTO-211-H) was 100%, the “Percent Inhibition” value (NCI-H1623) was 99% and the “Percent Inhibition” value (NCI-H1694) was 100%. For the same compound, the “Percent Inhibition” value (NCI-H1770) was 100%, the “Percent Inhibition” value (NCI-H2347) was 99% and the “Percent Inhibition” value (NCI-H2405) was 99%. For the same compound, the “Percent Inhibition” value (NCI-H28) was 99%, the “Percent Inhibition” value (NCI-H524) was 98% and the “Percent Inhibition” value (Panc 03.27) was 99%. The “Percent Inhibition” value (RL95) was 100%, the “Percent Inhibition” value (SW13) was 99% and the “Percent Inhibition” value (T47D) was 100%. For the same compound, the “Percent Inhibition” value (T98G) was 100%, the “Percent Inhibition” value (TCCSUP) was 100% and the “Percent Inhibition” value (ZR-75-30) was 99%.
